{
  "source": "patent EP1477174B1",
  "about": "“Radioactive arsenic-containing compounds and their uses in the treatment of tumors” (TTY Biopharm Company Limited, priority 2003, dated 2004)",
  "key": {"[1]": {"experiment": "Biodistribution test and radiation absorption dose (MIRD method) in rats with liver tumors", "format": "in vivo", "settings": "for Radiation absorption dose, Intestine / Radiation absorption dose, Kidney / Radiation absorption dose, Liver / Radiation absorption dose, Lung / Radiation absorption dose, Muscle / Radiation absorption dose, Spleen / Radiation absorption dose, Tumor: 0.45 mg/kg", "protocol": "The hepatic artery was dissected from the hepatic tissue of the rats by surgery. A PE-10 tube was introduced into the hepatic artery, and the test solution containing neutron-irradiated arsenic trioxide as prepared in Example 1 was injected into the hepatic artery. The PE-10 tube was removed after injection, and a surgical thread was used to bind and fix the blood vessels, followed by suturing of the wound.\nThe test injection solution containing neutron-irradiated arsenic trioxide as prepared in Example 1 was injected into the tail vein using a syringe with needle no. 25.\nA fixed amount of radioactive arsenic trioxide (radioactivity range: 2.77-3.25 mCi/ml, concentration: 1 mg/ml, animal injection dose: 0.45 mg/kg) prepared in Example 1 was injected into the rats with liver tumors through the hepatic artery and tail vein, respectively.\nThe rats were sacrificed by taking a large amount of blood from the heart at hours 2, 4, 16, 24 and 48, respectively, after injection, and the blood, hearts, lungs, livers, spleens, kidneys, intestines, bladders, muscles, and tumors were removed. These tissues or organs were placed in respective tubes, and their irradiation intensity was measured by a gamma counter (Wallac 1470 WIZARD) . The content percentage of arsenic trioxide per each gram of the tissue or organ was calculated using standard curve regression. There were two or three experimented rats in each experimental group.\nRadioactive arsenic trioxide was injected respectively into the tail vein and hepatic artery of the rats by I.V. and I.H. The dosage was calculated using MIRD method, and the residence time in each of the organs and the tumors was calculated using Excel software. Finally, the radiation absorption dose in each of the organs or tissues and the tumors was calculated using MIROSE 3 software. Table 3. Radiation absorption dose in each of the organs or tissues and the tumors after injection of radioactive arsenic trioxide into the animals through the tail vein and hepatic artery, respectively, by I.V. and I.H."}, "N1-S1 rat hepatoma cells [2]": {"test_system": "N1-S1 rat hepatoma cells", "experiment": "Therapeutic effect assessment: liver tumor direct injection, rats with liver tumors", "format": "in vivo, Spawn-Dawley rats", "parameters": "key to Response: Increase in Size of tumor (In%) is classified as \"Poor Response\"; decrease in size of tumorwithin 0%∼40% is classified as \"MildResponse\"; decrease in size of tumor to 50% or more or disappearance of tumor is classified as \"Good Response.\"", "settings": "for Response / Survival time: 0.45 mg/kg direct into liver tumor, single animals", "protocol": "(§1) When cultured to 1.5x10^6 cell/ml, 4x10^6 cell/0.06ml of N1-S1 cells were sampled and then implanted into Spawn-Dawley male rats (5-week-old, 150g) between the liver and liver capsule by surgery, and the wounds were closed by sutures. Rearing of the rats was continued for ten days, and ultrasonic scanning was used to detect any growth of liver tumor and tumor size. After scanning, animals that had developed liver tumors were used to conduct the experiments of tumor growth inhibition, and euthanasia was practiced on the rest of the rats.\nThe rats with liver tumors were subjected to surgery. After the locations of the liver tumors were found, the tumors were directly injected with normal saline, an injection containing arsenic trioxide without neutron irradiation treatment (concentration: 1 mg/ml; animal injection dosage: 0.45 mg/kg), and the injection prepared in Example 1 which contained radioactive arsenic trioxide having subjected to neutron irradiation treatment (radiation activity range: 2.77-3.25 mCi/ml; concentration: 1 mg/ml of concentration; and animal injection dosage: 0.45 mg/kg), respectively, once every week, twice in total.\n(§2) Before injection, the size of the liver tumors was examined by ultrasonic scanning. Ultrasonic scanning was conducted in the first week, the second week, and the fifth week, respectively, after start of the injection to observe the change in size of the tumor. Finally, the rats were sacrificed for observing whether there was metastasis."}, "N1-S1 rat hepatoma cells [3]": {"test_system": "N1-S1 rat hepatoma cells", "experiment": "Therapeutic effect assessment: hepatic artery single injection, rats with liver tumors", "format": "in vivo, Spawn-Dawley rats", "settings": "for Therapeutic effect (in words): hepatic artery single injection", "protocol": "as §1\nThe blood vessels of the hepatic artery were dissected from the hepatic tissue of the rats by surgery, and normal saline, an injection solution containing arsenic trioxide without neutron irradiation treatment (concentration: 1 mg/ml; and animal injection dosage: 0.45 mg/kg), and the injection solution prepared in Example 1 which contained radioactive arsenic trioxide having subjected to neutron irradiation treatment (radioactivity range: 2.77-3.25 mCi/ml; concentration: 1 mg/ml; and animal injection dosage: 0.45 mg/kg dose), were injected respectively via the hepatic artery in single injections.\nas §2"}, "N1-S1 rat hepatoma cells [4]": {"test_system": "N1-S1 rat hepatoma cells", "experiment": "Therapeutic effect assessment: continuous tail vein injection, rats with liver tumors", "format": "in vivo, Spawn-Dawley rats", "parameters": "key to Response: Increase in size of tumor (In%) is classified as \"Poor Response\"; decrease in size of tumorwithin 0%∼40% is classified as \"MildResponse\"; decrease in size of tumor to 50% or more or disappearance of tumor is classified as \"Good Response.\"", "settings": "for Response / Survival time: 0.45 mg/kg tail vein, continued for two weeks, single animals; for Effect on the inhibition of tumor growth (in words): continuous tail vein injection; for Survival of the rats (in words): tail vein injection, week 8", "protocol": "as §1\nThe rats with liver tumors were given normal saline, an injection solution containing arsenic trioxide without neutron irradiation treatment (concentration: 1 mg/ml; animal injection dosage: 0.45 mg/kg), and the injection solution prepared in Example 1 which contained radioactive arsenic trioxide having subjected to neutron irradiation treatment(radioactivity range: 2.77-3.25 mCi/ml; concentration: 1 mg/ml; and animal injection dosage: 0.45 mg/kg), respectively, via tail vein injection, and the injection was continued for two weeks.\nas §2, with “the injection so as to observe” for “the injection to observe”"}, "liver tumor": {"test_system": "liver tumor", "settings": "2 mg/kg for 10 consecutive days (Lin et al. 1999); cited from earlier work"}, "[5]": {"test_system": "human cervical cancer cells", "settings": "in vitro and in vivo, cervical cancer (Yong-Jin Chun et al. 2002); cited from earlier work"}, "[6]": {"test_system": "relapsed acute promyelocytic leukemia", "settings": "cited from earlier work"}, "[7]": {"settings": "0.45 mg/kg hepatic artery single injection, single animals"}},
  "note": "Where “and” joins values, the source holds several entries; their conditions need not be identical. Identical values can stand only once.",
  "data": [
    {"compound": "radioactive arsenic trioxide", "values": [
      {"measurement": "Radiation absorption dose, Intestine", "setting": "[1]; IH (hepatic artery)", "value": 0.23, "unit": "mGy/MBq"},
      {"measurement": "Radiation absorption dose, Kidney", "setting": "[1]; IH (hepatic artery)", "value": 0.28, "unit": "mGy/MBq"},
      {"measurement": "Radiation absorption dose, Liver", "setting": "[1]; IH (hepatic artery)", "value": 0.21, "unit": "mGy/MBq"},
      {"measurement": "Radiation absorption dose, Lung", "setting": "[1]; IH (hepatic artery)", "value": 0.56, "unit": "mGy/MBq"},
      {"measurement": "Radiation absorption dose, Muscle", "setting": "[1]; IH (hepatic artery)", "value": 0.12, "unit": "mGy/MBq"},
      {"measurement": "Radiation absorption dose, Spleen", "setting": "[1]; IH (hepatic artery)", "value": 0.95, "unit": "mGy/MBq"},
      {"measurement": "Radiation absorption dose, Tumor", "setting": "[1]; IH (hepatic artery)", "value": 21, "unit": "mGy/MBq"},
      {"measurement": "Radiation absorption dose, Intestine", "setting": "[1]; IV (tail vein)", "value": 0.16, "unit": "mGy/MBq"},
      {"measurement": "Radiation absorption dose, Kidney", "setting": "[1]; IV (tail vein)", "value": 0.25, "unit": "mGy/MBq"},
      {"measurement": "Radiation absorption dose, Liver", "setting": "[1]; IV (tail vein)", "value": 0.13, "unit": "mGy/MBq"},
      {"measurement": "Radiation absorption dose, Lung", "setting": "[1]; IV (tail vein)", "value": 0.47, "unit": "mGy/MBq"},
      {"measurement": "Radiation absorption dose, Muscle", "setting": "[1]; IV (tail vein)", "value": 0.06, "unit": "mGy/MBq"},
      {"measurement": "Radiation absorption dose, Spleen", "setting": "[1]; IV (tail vein)", "value": 0.76, "unit": "mGy/MBq"},
      {"measurement": "Radiation absorption dose, Tumor", "setting": "[1]; IV (tail vein)", "value": 4.26, "unit": "mGy/MBq"},
      {"measurement": "Contents of the radioactive arsenic trioxide in the heart, the lung, and the spleen", "setting": "[1]; hepatic artery and tail vein injection, hours 2-48 (Figure 3)", "value": "1-3 % ID/g"},
      {"measurement": "Response", "setting": "N1-S1 rat hepatoma cells [2]", "value": "Good (decrease in size of tumor to 50% or more or disappearance of tumor is classified as \"Good Response.\")"},
      {"measurement": "Survival time", "setting": "N1-S1 rat hepatoma cells [2]", "value": ">30", "unit": "days"},
      {"measurement": "Change of tumor size (in words)", "setting": "N1-S1 rat hepatoma cells [2]; direct injection into the liver tumors, 4 weeks", "value": "the tumors in all of the animals shrank"},
      {"measurement": "Response", "setting": "N1-S1 rat hepatoma cells [3]; [7]", "value": "Good (decrease in size of tumor to 50% or more or disappearance of tumor is classified as \"Good Response.\")"},
      {"measurement": "Survival time", "setting": "N1-S1 rat hepatoma cells [3]; [7]", "value": ">42", "unit": "days"},
      {"measurement": "Tumor size After injection Week 2", "setting": "N1-S1 rat hepatoma cells [3]; [7]", "value": "Disappeared"},
      {"measurement": "Tumor size After injection Week 5", "setting": "N1-S1 rat hepatoma cells [3]; [7]", "value": "Disappeared"},
      {"measurement": "Therapeutic effect (in words)", "setting": "N1-S1 rat hepatoma cells [3]", "value": "complete disappearance of the tumors in some of the animals 2 weeks after injection"},
      {"measurement": "Response", "setting": "N1-S1 rat hepatoma cells [4]", "value": "Good (decrease in size of tumor to 50% or more or disappearance of tumor is classified as \"Good Response.\")"},
      {"measurement": "Survival time", "setting": "N1-S1 rat hepatoma cells [4]", "value": ">56", "unit": "days"},
      {"measurement": "Effect on the inhibition of tumor growth (in words)", "setting": "N1-S1 rat hepatoma cells [4]", "value": "most noticeable"},
      {"measurement": "Survival of the rats (in words)", "setting": "N1-S1 rat hepatoma cells [4]", "value": "all alive in week 8"}
    ]},
    {"compound": "arsenic trioxide [reference compound]", "values": [
      {"measurement": "life of the mice extended to", "setting": "liver tumor", "value": 127.2, "unit": "%"},
      {"measurement": "Response", "setting": "N1-S1 rat hepatoma cells [2]", "value": "Poor and Good (decrease in size of tumor to 50% or more or disappearance of tumor is classified as \"Good Response.\") and Mild (decrease in size of tumorwithin 0%∼40% is classified as \"MildResponse\")"},
      {"measurement": "Survival time", "setting": "N1-S1 rat hepatoma cells [2]", "value": ">30", "unit": "days"},
      {"measurement": "Response", "setting": "N1-S1 rat hepatoma cells [3]; [7]", "value": "Mild (decrease in size of tumorwithin 0%∼40% is classified as \"MildResponse\") (2×) and Poor (2×)"},
      {"measurement": "Survival time", "setting": "N1-S1 rat hepatoma cells [3]; [7]", "value": ">42 day (2×) and 36 day and 39 day"},
      {"measurement": "Therapeutic effect (in words)", "setting": "N1-S1 rat hepatoma cells [3]", "value": "not satisfactory"},
      {"measurement": "Effect of combined treatment with ionizing radiation (in words)", "setting": "[5]", "value": "synergistic effect"},
      {"measurement": "Response", "setting": "N1-S1 rat hepatoma cells [4]", "value": "Poor (3×) and Mild (decrease in size of tumorwithin 0%∼40% is classified as \"MildResponse\") (2×)"},
      {"measurement": "Survival time", "setting": "N1-S1 rat hepatoma cells [4]", "value": "14 day (2×) and 42 day and 7 day and 40 day"},
      {"measurement": "Effect on the inhibition of tumor growth (in words)", "setting": "N1-S1 rat hepatoma cells [4]", "value": "not significant"},
      {"measurement": "Survival of the rats (in words)", "setting": "N1-S1 rat hepatoma cells [4]", "value": "still alive in week 8"},
      {"measurement": "Effect of combination with other drugs (in words)", "setting": "[6]; combination with other drugs (such as GM-CSF), relapsed or ATRA resistant acute promyelocytic leukemia (Muto A et al. 2001)", "value": "synergistic therapeutic effect"},
      {"measurement": "complete remission (CR) rate", "setting": "[6]; intravenously at a dose of 10 mg/d, relapsed acute promyelocytic leukemia (Shen Z.X. et al. 1997)", "value": 90, "unit": "%"},
      {"measurement": "complete remission rate", "setting": "[6]; low-dose, intravenously, daily dose of 0.08 mg/kg for 28 days (Shen Y et al. 2001)", "value": 80, "unit": "%"}
    ]},
    {"compound": "S1[As]2S[As]3S[As]2S[As]13", "note": "[tetraarsenic tetraslfide]", "values": [
      {"measurement": "complete remission rates", "setting": "[6]; other arsenic-containing substances (Wang Z.Y. 2001)", "value": 84.9, "unit": "%"}
    ]}
  ]
}
